Experiments:
[1] = tested on: AA-induced ear edema; assay: Arachidonic acid (AA)-induced acute ear edema in mice; type: in vivo, mice (BALB/c ByJ Rj); design: Edema Mean: unit not given here; details: for reduced AA-induced ear edema in mice by up to: single topical application, highest over 1, 2 and 4 h; for Edema Mean / Inhibition vs AA %: topical with AA 4%
Experimental: Positive control compound, indomethacin (CD0016), was dissolved in the AA solution at 5% by weight. […] Different compounds at different dosages were tested on 10 groups of animals, each group having 5 mice (see Table 4). […] After the last measurement, the animals were sacrificed by carbon dioxide following a preapproved protocol. The mean of the ear thickness measured from 5 animals in each of the 10 groups was calculated. The anti-inflammatory activity of a test compound was measured by its ability to reduce AA-induced ear edema, i.e., as the percentage of reduction in ear thickness of animals treated with the test compound and AA as compared with that treated with AA alone.

[2] = tested on: TPA-induced ear edema; assay: TPA-induced ear edema in mice; type: in vivo, mice (BALB/c ByJ Rj); design: Ear Edema Mean: unit not given beside the values; details: single topical application with TPA 0.01%, 6 h
Experimental: The edema inducer, TPA, was dissolved in ethanol at 0.01% by weight to obtain a TPA solution (“TPA solution”). […] Positive control compound, betametasone valerate (CD0153), was dissolved in the TPA solution at 0.01% by weight. […] Different compounds at different dosages were tested on 10 groups of animals, each group having 5 mice (see Table 2). [table] The ear thickness of each of the 50 animals was measured at 6 hours after the compound application. After the measurement, the animals were sacrificed by carbon dioxide following a preapproved protocol. The mean of the ear thickness measured from 5 animals in each of the 10 groups was calculated. The anti-inflammatory activity of a test compound was measured by its ability to reduce TPA-induced ear edema, i.e., as the percentage of reduction in ear thickness of animals treated with both the test compound and TPA as compared with that treated with TPA alone.

[3] = CD08100/02 at 0.1%, 1 h Measurement
[4] = CD08100/02 at 0.1%, 2 h Measurement
[5] = CD08100/02 at 0.1%, 4 h Measurement
[6] = CD08100/02 at 0.3%, 1 h Measurement
[7] = CD08100/02 at 0.3%, 2 h Measurement
[8] = CD08100/02 at 0.3%, 4 h Measurement
[9] = CD08100/02 at 1%, 1 h Measurement
[10] = CD07805 at 0.2%, 1 h Measurement
[11] = CD07805 at 0.2%, 2 h Measurement
[12] = CD07805 at 0.2%, 4 h Measurement

`COc1ccc2c(c1)c(CC(=O)O)c(C)n2C(=O)c1ccc(Cl)cc1` [CD0016, indomethacin] was tested, and the “reduced AA-induced ear edema in mice by up to” value (“reduced AA-induced ear edema” for short) ([1]; CD0016 at 5%) was “up to 94.2%”, the “Edema Mean” value ([1]; CD0016 at 5%, 1 h Measurement) was 0.8 and the “Inhibition vs AA %” value ([1]; CD0016 at 5%, 1 h Measurement) was 93.1%. The “Edema Mean” value ([1]; CD0016 at 5%, 2 h Measurement) was 0.6, the “Inhibition vs AA %” value ([1]; CD0016 at 5%, 2 h Measurement) was 94.2% and the “Edema Mean” value ([1]; CD0016 at 5%, 4 h Measurement) was 0.4. The “Inhibition vs AA %” value ([1]; CD0016 at 5%, 4 h Measurement) was 93.5%.
For `O=C(O)Cc1ccccc1Nc1c(Cl)cccc1Cl` [CD08100/02, 2-[2-(2,6-dichlorophenylamino)phenyl]acetic acid], the “Ear Edema Mean” value ([2]; CD08100/02 at 0.1%) was 5.80, the “Inhibition vs TPA (%)” value ([2]; CD08100/02 at 0.1%) was 63.8% and the “Ear Edema Mean” value ([2]; CD08100/02 at 0.3%) was 6.40. The “Inhibition vs TPA (%)” value ([2]; CD08100/02 at 0.3%) was 60.0%, the “Ear Edema Mean” value ([2]; CD08100/02 at 1%) was 4.80 and the “Inhibition vs TPA (%)” value ([2]; CD08100/02 at 1%) was 70.0%. For the same molecule, the “reduced AA-induced ear edema” value ([1]; CD08100/02 at 0.1%) was “up to 71.2%”, the “Edema Mean” value [1, 3] was 4.2 and the “Inhibition vs AA %” value [1, 3] was 63.8%. For the same molecule, the “Edema Mean” value [1, 4] was 3, the “Inhibition vs AA %” value [1, 4] was 71.2% and the “Edema Mean” value [1, 5] was 2. The “Inhibition vs AA %” value [1, 5] was 67.7%, the “reduced AA-induced ear edema” value ([1]; CD08100/02 at 0.3%) was ≤ 80.6% and the “Edema Mean” value [1, 6] was 3.6. For the same molecule, the “Inhibition vs AA %” value [1, 6] was 69.0%, the “Edema Mean” value [1, 7] was 2.2 and the “Inhibition vs AA %” value [1, 7] was 78.8%. The “Edema Mean” value [1, 8] was 1.2, the “Inhibition vs AA %” value [1, 8] was 80.6% and the “reduced AA-induced ear edema” value ([1]; CD08100/02 at 1%) was ≤ 83.9%. For the same molecule, the “Edema Mean” value [1, 9] was 2, the “Inhibition vs AA %” value [1, 9] was 82.8% and the “Edema Mean” value ([1]; CD08100/02 at 1%, 2 h Measurement) was 1. For the same molecule, the “Edema Mean” value ([1]; CD08100/02 at 1%, 4 h Measurement) was 1.
In the case of `CCCCC(=O)O[C@]1(C(=O)CO)[C@@H](C)C[C@H]2[C@@H]3CCC4=CC(=O)C=C[C@]4(C)[C@@]3(F)[C@@H](O)C[C@@]21C` [CD0153, betametasone valerate], the “Ear Edema Mean” value ([2]; CD0153 at 0.01%) is reported as 0.40 and the “Inhibition vs TPA (%)” value ([2]; CD0153 at 0.01%) is reported as 97.5%.
For `Brc1c(NC2=NCCN2)ccc2nccnc12` [CD07805, (5-bromo-quinoxalin-6-yl)-(4,5-dihydro-1H-imidazol-2-yl)-amine], the “Ear Edema Mean” value ([2]; CD07805 at 0.2%) was 8.60, the “Inhibition vs TPA (%)” value ([2]; CD07805 at 0.2%) was 46.3% and the “reduced AA-induced ear edema” value ([1]; CD07805 at 0.2%) was “up to 80.8%”. For the same molecule, the “Edema Mean” value [1, 10] was 2.8, the “Inhibition vs AA %” value [1, 10] was 75.9% and the “Edema Mean” value [1, 11] was 2. The “Inhibition vs AA %” value [1, 11] was 80.8%, the “Edema Mean” value [1, 12] was 1.6 and the “Inhibition vs AA %” value [1, 12] was 74.2%.

— patent publication US9186358B2, “Combination therapy for treating or preventing an inflammatory skin disorder” (GALDERMA LABORATORIES, L.P., priority 2009, dated 2015)
